Patent US20250129070A1, “BIFUNCTIONAL ANDROGEN RECEPTOR COMPOUNDS” (priority 2023, published 2025)

Key:
VCaP cells = experiment: VCaP growth inhibition assay; format: cell-based; conditions: 30 pM R1881, 9 days, CTG
How it was run: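 Growth read by CTG luminescence after 9-day exposure to compound (final 100 nM–10 fM, 1:5 steps) plus 30 pM R1881, in phenol red-free DMEM with 5% CSS. Cells pre-incubated 72 h before dosing; IC50 by nonlinear 4-parameter regression.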

AR / CBP ternary complex = experiment: Ternary complex formation assay (sandwich ELISA, AR capture / CBP detection) in VCaP cell lysates; format: cell-based; conditions: 1.5 hours treatment, sandwich ELISA (AR capture, CBP or p300 detection)
How it was run: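 Anti-AR (AR 441)-coated plates capture AR from lysates of VCaP cells grown ≥3 days at 50K/well in 5% charcoal-stripped FBS, dosed with bifunctional for 1.5 h and lysed 30 min at 4 °C. Co-captured CBP/p300 is probed with rabbit mAb and HRP anti-rabbit, then QuantaRed fluorescence (570/585) is read at 0, 5 and 15 min.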

Structure (SMILES)	IC50 (VCaP cells) [nM]	EC50 (AR / CBP ternary complex) [nM]
CC(=O)N1CCc2c(c(Nc3ccc(-c4cnn(C)c4)cc3F)nn2C2CCN(CC3CCN(c4ncc(C(=O)NC5C(C)(C)C(Oc6ccc(C#N)c(Cl)c6)C5(C)C)cn4)CC3)CC2)C1 (centres unmarked) [Compound 186, 2-[4-[[4-[5-acetyl-3-[2-fluoro-4-(1-methylpyrazol-4-yl)anilino]-6,7-dihydro-4H-pyrazolo[4,3-c]pyridin-1-yl]-1-piperidyl]methyl]-1-piperidyl]-N-[3-(3-chloro-4-cyano-phenoxy)-2,2,4,4-tetramethyl-cyclobutyl]pyrimidine-5-carboxamide]	0.1 to 1	< 1
CC(=O)N1CCc2c(c(N3CCCc4cc(C#N)ccc43)nn2C2CCN(CC3CCN(c4ncc(C(=O)NC5C(C)(C)C(Oc6ccc(C#N)c(Cl)c6)C5(C)C)cn4)CC3)CC2)C1 (centres unmarked) [Compound 155, 2-[4-[[4-[5-acetyl-3-(6-cyano-3,4-dihydro-2H-quinolin-1-yl)-6,7-dihydro-4H-pyrazolo[4,3-c]pyridin-1-yl]-1-piperidyl]methyl]-1-piperidyl]-N-[3-(3-chloro-4-cyano-phenoxy)-2,2,4,4-tetramethyl-cyclobutyl]pyrimidine-5-carboxamide]	0.1 to 1	< 1
CC(=O)N1CCc2c(c(N3CCCc4cc(-c5cnn(C)c5)c(C(F)F)cc43)nn2C2CCN(CCc3ncc(C(=O)NC4C(C)(C)C(Oc5ccc(C#N)c(Cl)c5)C4(C)C)cn3)CC2)C1 (centres unmarked) [Compound 92, 2-[2-[4-[5-acetyl-3-[7-(difluoromethyl)-6-(1-methylpyrazol-4-yl)-3,4-dihydro-2H-quinolin-1-yl]-6,7-dihydro-4H-pyrazolo[4,3-c]pyridin-1-yl]-1-piperidyl]ethyl]-N-[3-(3-chloro-4-cyano-phenoxy)-2,2,4,4-tetramethyl-cyclobutyl]pyrimidine-5-carboxamide]	> 100	> 100
CC(=O)N1CCc2c(c(Nc3ccc(-c4cnn(C)c4)cc3F)nn2C2CN(CC3CCN(c4ncc(C(=O)NC5C(C)(C)C(Oc6ccc(C#N)c(Cl)c6)C5(C)C)cn4)CC3)C2)C1 (centres unmarked) [Compound 4, 2-[4-[[3-[5-acetyl-3-[2-fluoro-4-(1-methylpyrazol-4-yl)anilino]-6,7-dihydro-4H-pyrazolo[4,3-c]pyridin-1-yl]azetidin-1-yl]methyl]-1-piperidyl]-N-[3-(3-chloro-4-cyano-phenoxy)-2,2,4,4-tetramethyl-cyclobutyl]pyrimidine-5-carboxamide]	> 100	> 100
COc1cc(OC2C(C)(C)C(NC(=O)c3ccc(N4CCC(OC5CCC(n6nc(N7CCCc8cc(-c9cnn(C)c9)c(C(F)F)cc87)c7c6CCN(C(C)=O)C7)CC5)CC4)cc3)C2(C)C)ccc1C#N (centres unmarked) [Compound 309, 4-[4-[4-[5-acetyl-3-[7-(difluoromethyl)-6-(1-methylpyrazol-4-yl)-3,4-dihydro-2H-quinolin-1-yl]-6,7-dihydro-4H-pyrazolo[4,3-c]pyridin-1-yl]cyclohexoxy]-1-piperidyl]-N-[3-(4-cyano-3-methoxy-phenoxy)-2,2,4,4-tetramethyl-cyclobutyl]benzamide]	0.1 to 1	< 1
CC(=O)N1CCc2c(c(N3CCCc4cc(C#N)ccc43)nn2C2CC3(C2)CN(C(=O)C2CC4(C2)CN(c2ncc(C(=O)NC5C(C)(C)C(Oc6ccc(C#N)c(Cl)c6)C5(C)C)cn2)C4)C3)C1 (centres unmarked) [Compound 220, 2-[6-[6-[5-acetyl-3-(6-cyano-3,4-dihydro-2H-quinolin-1-yl)-6,7-dihydro-4H-pyrazolo[4,3-c]pyridin-1-yl]-2-azaspiro[3.3]heptane-2-carbonyl]-2-azaspiro[3.3]heptan-2-yl]-N-[3-(3-chloro-4-cyano-phenoxy)-2,2,4,4-tetramethyl-cyclobutyl]pyrimidine-5-carboxamide]	1 to 100	< 1
CC(=O)N1CCc2c(c(N3CCCc4cc(-c5cnn(C)c5)c(C(F)F)cc43)nn2C2CCC(OC3CN(c4ncc(C(=O)NC5C(C)(C)C(Oc6ccc(C#N)c(Cl)c6)C5(C)C)cn4)C3)CC2)C1 (centres unmarked) [Compound 341]	0.1 to 1	< 1
COc1cc(OC2C(C)(C)C(NC(=O)c3ccc(C#CC4CCC(N5CCC(n6nc(N7CCCc8cc(-c9cnn(C)c9)c(C(F)F)cc87)c7c6CCN(C(C)=O)C7)CC5)CC4)cc3)C2(C)C)ccc1C#N (centres unmarked) [Compound 292, 4-[2-[4-[4-[5-acetyl-3-[7-(difluoromethyl)-6-(1-methylpyrazol-4-yl)-3,4-dihydro-2H-quinolin-1-yl]-6,7-dihydro-4H-pyrazolo[4,3-c]pyridin-1-yl]-1-piperidyl]cyclohexyl]ethynyl]-N-[3-(4-cyano-3-methoxy-phenoxy)-2,2,4,4-tetramethyl-cyclobutyl]benzamide]	0.1 to 1	< 1
CC(=O)N1CCc2c(c(N3CCCc4cc(-c5cnn(C)c5)c(C(F)F)cc43)nn2CCCOc2ncc(C(=O)NC3C(C)(C)C(Oc4ccc(C#N)c(Cl)c4)C3(C)C)cn2)C1 (centres unmarked) [Compound 43, 2-[3-[5-acetyl-3-[7-(difluoromethyl)-6-(1-methylpyrazol-4-yl)-3,4-dihydro-2H-quinolin-1-yl]-6,7-dihydro-4H-pyrazolo[4,3-c]pyridin-1-yl]propoxy]-N-[3-(3-chloro-4-cyano-phenoxy)-2,2,4,4-tetramethyl-cyclobutyl]pyrimidine-5-carboxamide]	> 100	> 100
COc1cc(OC2C(C)(C)C(NC(=O)c3ccc(N4CCC(CCn5cc(-c6cc7cccc(-c8nn(C9CCOCC9)c9c8CN(C(C)=O)CC9)c7cn6)cn5)CC4)cc3)C2(C)C)ccc1C#N (centres unmarked) [Compound 244, 4-[4-[2-[4-[8-(5-acetyl-1-tetrahydropyran-4-yl-6,7-dihydro-4H-pyrazolo[4,3-c]pyridin-3-yl)-3-isoquinolyl]pyrazol-1-yl]ethyl]-1-piperidyl]-N-[3-(4-cyano-3-methoxy-phenoxy)-2,2,4,4-tetramethyl-cyclobutyl]benzamide]	0.1 to 1	1 to 10

More lines, now with the values ahead:

IC50 (VCaP cells) [nM]	EC50 (AR / CBP ternary complex) [nM]	Structure (SMILES)
≤ 0.1	< 1	CC(=O)N1CCc2c(c(N3CCCc4cc(-c5cnn(C)c5)c(C(F)F)cc43)nn2C2CCN(C3CC4(C3)CN(c3ncc(C(=O)NC5C(C)(C)C(Oc6ccc(C#N)c(Cl)c6)C5(C)C)cn3)C4)CC2)C1 (centres unmarked) [Compound 348, 2-[6-[4-[5-acetyl-3-[7-(difluoromethyl)-6-(1-methylpyrazol-4-yl)-3,4-dihydro-2H-quinolin-1-yl]-6,7-dihydro-4H-pyrazolo[4,3-c]pyridin-1-yl]-1-piperidyl]-2-azaspiro [3.3]heptan-2-yl]-N-[3-(3-chloro-4-cyano-phenoxy)-2,2,4,4-tetramethyl-cyclobutyl]pyrimidine-5-carboxamide]
0.1 to 1	< 1	COc1cc(OC2C(C)(C)C(NC(=O)c3ccc(N4CCC(CN5CCC(n6nc(N7CCCc8cc(C#N)c(C(F)F)cc87)c7c6CCN(C(C)=O)C7)CC5)C(C)(C)C4)cc3)C2(C)C)ccc1C#N (centres unmarked) [Compound 451, 4-[4-[[4-[5-acetyl-3-[6-cyano-7-(difluoromethyl)-3,4-dihydro-2H-quinolin-1-yl]-6,7-dihydro-4H-pyrazolo[4,3-c]pyridin-1-yl]-1-piperidyl]methyl]-3,3-dimethyl-1-piperidyl]-N-[3-(4-cyano-3-methoxy-phenoxy)-2,2,4,4-tetramethyl-cyclobutyl]benzamide]
0.1 to 1	10 to 100	CC(=O)N1CCc2c(c(-c3cccc4cc(-c5ccc(CCC6CCN(c7ncc(C(=O)NC8C(C)(C)C(Oc9ccc(C#N)c(Cl)c9)C8(C)C)cn7)CC6)nc5)ncc34)nn2C)C1 (centres unmarked) [Compound 231, 2-[4-[2-[5-[8-(5-acetyl-1-methyl-6,7-dihydro-4H-pyrazolo[4,3-c]pyridin-3-yl)-3-isoquinolyl]-2-pyridyl]ethyl]-1-piperidyl]-N-[3-(3-chloro-4-cyano-phenoxy)-2,2,4,4-tetramethyl-cyclobutyl]pyrimidine-5-carboxamide]
0.1 to 1	< 1	CC(=O)N1CCc2c(c(N3CCCc4cc(-c5cnn(C)c5)c(C(F)F)cc43)nn2C2CCN(C3CCC4(CC3)CC(Oc3ncc(C(=O)NC5C(C)(C)C(Oc6ccc(C#N)c(Cl)c6)C5(C)C)cn3)C4)CC2)C1 (centres unmarked) [Compound 383, 2-[7-[4-[5-acetyl-3-[7-(difluoromethyl)-6-(1-methylpyrazol-4-yl)-3,4-dihydro-2H-quinolin-1-yl]-6,7-dihydro-4H-pyrazolo[4,3-c]pyridin-1-yl]-1-piperidyl]spiro[3.5]nonan-2-yl]oxy-N-[3-(3-chloro-4-cyano-phenoxy)-2,2,4,4-tetramethyl-cyclobutyl]pyrimidine-5-carboxamide]
0.1 to 1	< 1	CC(=O)N1CCc2c(c(N3CCCc4cc(-c5cnn(C)c5)c(C(F)F)cc43)nn2C2CCN(C3CCC(C#Cc4ncc(C(=O)NC5C(C)(C)C(Oc6ccc(C#N)c(Cl)c6)C5(C)C)cn4)CC3)CC2)C1 (centres unmarked) [Compound 293, 2-[2-[4-[4-[5-acetyl-3-[7-(difluoromethyl)-6-(1-methylpyrazol-4-yl)-3,4-dihydro-2H-quinolin-1-yl]-6,7-dihydro-4H-pyrazolo[4,3-c]pyridin-1-yl]-1-piperidyl]cyclohexyl]ethynyl]-N-[3-(3-chloro-4-cyano-phenoxy)-2,2,4,4-tetramethyl-cyclobutyl]pyrimidine-5-carboxamide]
≤ 0.1	< 1	CC(=O)N1CCc2c(c(N3CCCc4cc(-c5cnn(C)c5)c(C(F)F)cc43)nn2C2CCN(C(C)CC3CCN(c4ncc(C(=O)NC5C(C)(C)C(Oc6ccc(C#N)c(Cl)c6)C5(C)C)cn4)CC3)CC2)C1 (centres unmarked) [Compound 171, 2-[4-[2-[4-[5-acetyl-3-[7-(difluoromethyl)-6-(1-methylpyrazol-4-yl)-3,4-dihydro-2H-quinolin-1-yl]-6,7-dihydro-4H-pyrazolo[4,3-c]pyridin-1-yl]-1-piperidyl]propyl]-1-piperidyl]-N-[3-(3-chloro-4-cyano-phenoxy)-2,2,4,4-tetramethyl-cyclobutyl]pyrimidine-5-carboxamide]
